Test results as given in patent publication US9149038B2, “4-amino-6-(heterocyclic)picolinates and 6-amino-2-(heterocyclic)pyrimidine-4-carboxylates and their use as herbicides” (Dow AgroSciences LLC, priority 2013, dated 2015).
Like-named read-outs stand apart in the source and are kept apart here.

Tests used:
[1] = system: Key Grass and Sedge Weeds as well as Grass Crops; assay: Post-Emergent Test II: postemergent herbicidal activity, visual rating after 14 d (Table 8); assay type: in vivo; details: post-emergence, 336 h; for pest or weed control at 35 g/ha: 35 g ai/ha; for pest or weed control at 70 g/ha: 70 g ai/ha; for pest or weed control at 140 g/ha: 140 g ai/ha
Excerpt: (§1) Herbicidal evaluations were made visually on a scale of 0 to 100 where 0 represents no activity and 100 represents complete plant death.
(§2) Seeds or nutlets of the desired test plant species were planted in Sun Gro Metro-Mix® 360 planting mixture, which typically has a pH of 6.0 to 6.8 and an organic matter content of about 30 percent, in plastic pots with a surface area of 64 square centimeters (cm^2). When required to ensure good germination and healthy plants, a fungicide treatment and/or other chemical or physical treatment was applied. The plants were grown for 7-21 d in a greenhouse with an approximate 15 h photoperiod which was maintained at about 23-29° C. during the day and 22-28° C. during the night. Nutrients and water were added on a regular basis and supplemental lighting was provided with overhead metal halide 1000-Watt lamps as necessary. The plants were employed for testing when they reached the first or second true leaf stage.
(§3) A weighed amount, determined by the highest rate to be tested, of each test compound was placed in a 25 mL glass vial and was dissolved in 4 mL of a 97:3 v/v mixture of acetone and DMSO to obtain concentrated stock solutions. […] The concentrated stock solutions obtained were diluted with 20 mL of an aqueous mixture containing acetone, water, isopropyl alcohol, DMSO, Atplus 411F crop oil concentrate, and Triton® X-155 surfactant in a 48.5:39:10:1.5:1.0:0.02 v/v ratio to obtain spray solutions containing the highest application rates. Additional application rates were obtained by serial dilution of 12 mL of the high rate solution into a solution containing 2 mL of a 97:3 v/v mixture of acetone and DMSO and 10 mL of an aqueous mixture containing acetone, water, isopropyl alcohol, DMSO, Atplus 411F crop oil concentrate, and Triton X-155 surfactant in a 48.5:39:10:1.5:1.0:0.02 v/v ratio to obtain ½×, ¼×, ⅛× and 1/16× rates of the high rate. Compound requirements are based upon a 12 mL application volume at a rate of 187 liters per hectare (L/ha). Formulated compounds were applied to the plant material with an overhead Mandel track sprayer equipped with 8002E nozzles calibrated to deliver 187 L/ha over an application area of 0.503 square meters at a spray height of 18 inches (43 cm) above the average plant canopy height. Control plants were sprayed in the same manner with the solvent blank.
(§4) The treated plants and control plants were placed in a greenhouse as described above and watered by subirrigation to prevent wash-off of the test compounds. After 14 d, the condition of the test plants as compared with that of the untreated plants was determined visually and scored on a scale of 0 to 100 percent where 0 corresponds to no injury and 100 corresponds to complete kill and are presented as indicated in Table 4.

[2] = system: Key Broadleaf Weed and Crop Species; assay: Post-Emergent Test II: postemergent herbicidal activity, visual rating after 14 d (Table 7); assay type: in vivo; details: post-emergence, 336 h; for pest or weed control at 35 g/ha: 35 g ai/ha; for pest or weed control at 70 g/ha: 70 g ai/ha; for pest or weed control at 140 g/ha: 140 g ai/ha
Excerpt: as §1, §2, §3, §4

[3] = giant foxtail (Setaria faberi), read-out: Visual Growth Reduction (%) 14 Days After Application SETFA
[4] = maize, corn (Zea mays), read-out: Visual Growth Reduction (%) 14 Days After Application ZEAMX
[5] = rice (Oryza sativa), read-out: Visual Growth Reduction (%) 14 Days After Application ORYSA
[6] = wheat, spring (Triticum aestivum), read-out: Visual Growth Reduction (%) 14 Days After Application TRZAS
[7] = yellow nutsedge (Cyperus esculentus), read-out: Visual Growth Reduction (%) 14 Days After Application CYPES
[8] = lambsquarters (Chenopodium album), read-out: Visual Growth Reduction (%) 14 Days After Application CHEAL
[9] = oilseed rape, canola (Brassica napus), read-out: Visual Growth Reduction (%) 14 Days After Application BRSNN
[10] = redroot pigweed (Amaranthus retroflexus), read-out: Visual Growth Reduction (%) 14 Days After Application AMARE
[11] = sunflower (Helianthus annuus), read-out: Visual Growth Reduction (%) 14 Days After Application HELAN
[12] = velvetleaf (Abutilon theophrasti), read-out: Visual Growth Reduction (%) 14 Days After Application ABUTH
[13] = wild poinsettia (Euphorbia heterophylla), read-out: Visual Growth Reduction (%) 14 Days After Application EPHHL

| Compound | pest or weed control at 35 g/ha [1, 4] [%] | pest or weed control at 70 g/ha [1, 4] [%] | pest or weed control at 140 g/ha [1, 4] [%] | pest or weed control at 35 g/ha [1, 5] [%] | pest or weed control at 70 g/ha [1, 5] [%] | pest or weed control at 140 g/ha [1, 5] [%] | pest or weed control at 35 g/ha [1, 6] [%] | pest or weed control at 70 g/ha [1, 6] [%] | pest or weed control at 140 g/ha [1, 6] [%] | pest or weed control at 35 g/ha [1, 7] [%] | pest or weed control at 140 g/ha [1, 7] [%] | pest or weed control at 35 g/ha [2, 8] [%] | pest or weed control at 70 g/ha [2, 8] [%] | pest or weed control at 140 g/ha [2, 8] [%] | pest or weed control at 35 g/ha [2, 9] [%] | pest or weed control at 70 g/ha [2, 9] [%] | pest or weed control at 140 g/ha [2, 9] [%] | pest or weed control at 35 g/ha [2, 10] [%] | pest or weed control at 70 g/ha [2, 10] [%] | pest or weed control at 140 g/ha [2, 10] [%] | also measured |
| --- | --- | --- | --- | --- | --- | --- | --- | --- | --- | --- | --- | --- | --- | --- | --- | --- | --- | --- | --- | --- | --- |
| Cc1c(-c2cc(N)c(Cl)c(C(=O)O)n2)ccc2c1OC(F)(F)O2 [Compound 36] | 0 to 29 | 0 to 29 | 0 to 29 | 0 to 29 | 0 to 29 | 0 to 29 | 0 to 29 | 0 to 29 | 0 to 29 | 0 to 29 | 0 to 29 | 0 to 29 | 45 to 59 | 45 to 59 | 0 to 29 | 30 to 44 | 45 to 59 | 95 to 100 | 95 to 100 | 95 to 100 | pest or weed control at 35 g/ha [1, 3]: 0 to 29%; pest or weed control at 70 g/ha [1, 3]: 30 to 44%; pest or weed control at 140 g/ha [1, 3]: 45 to 59%; pest or weed control at 70 g/ha [1, 7]: 0 to 29%; pest or weed control at 35 g/ha [2, 11]: 75 to 84%; pest or weed control at 70 g/ha [2, 11]: 75 to 84%; pest or weed control at 140 g/ha [2, 11]: 85 to 94%; pest or weed control at 35 g/ha [2, 12]: 0 to 29%; pest or weed control at 70 g/ha [2, 12]: 0 to 29%; pest or weed control at 140 g/ha [2, 12]: 0 to 29%; pest or weed control at 35 g/ha [2, 13]: 0 to 29%; pest or weed control at 70 g/ha [2, 13]: 0 to 29%; pest or weed control at 140 g/ha [2, 13]: 0 to 29% |
| Nc1cc(-c2ccc3c(c2Cl)OC(F)(F)O3)nc(C(=O)O)c1Cl [Compound 34] | 60 to 74 | 60 to 74 | 60 to 74 | 0 to 29 | 0 to 29 | 0 to 29 | 45 to 59 | 60 to 74 | 60 to 74 | 0 to 29 | 0 to 29 | 75 to 84 | 75 to 84 | 75 to 84 | 75 to 84 | 75 to 84 | 85 to 94 | 85 to 94 | 95 to 100 | 95 to 100 | pest or weed control at 35 g/ha [1, 3]: 75 to 84%; pest or weed control at 70 g/ha [1, 3]: 75 to 84%; pest or weed control at 140 g/ha [1, 3]: 75 to 84%; pest or weed control at 70 g/ha [1, 7]: 0 to 29%; pest or weed control at 35 g/ha [2, 11]: 75 to 84%; pest or weed control at 70 g/ha [2, 11]: 85 to 94%; pest or weed control at 140 g/ha [2, 11]: 85 to 94%; pest or weed control at 35 g/ha [2, 12]: 45 to 59%; pest or weed control at 70 g/ha [2, 12]: 60 to 74%; pest or weed control at 140 g/ha [2, 12]: 75 to 84%; pest or weed control at 35 g/ha [2, 13]: 45 to 59%; pest or weed control at 70 g/ha [2, 13]: 60 to 74%; pest or weed control at 140 g/ha [2, 13]: 60 to 74% |
| COC(=O)c1nc(-c2ccc3c(c2Cl)OC(F)(F)O3)cc(N)c1Cl [Compound 33] | 60 to 74 | 60 to 74 | 75 to 84 | 0 to 29 | 0 to 29 | 0 to 29 | 0 to 29 | 0 to 29 | 0 to 29 | 95 to 100 | 95 to 100 | 75 to 84 | 75 to 84 | 75 to 84 | 60 to 74 | 60 to 74 | 60 to 74 | 60 to 74 | 75 to 84 | 95 to 100 | pest or weed control at 35 g/ha [1, 3]: 0 to 29%; pest or weed control at 70 g/ha [1, 3]: 0 to 29%; pest or weed control at 140 g/ha [1, 3]: 45 to 59%; pest or weed control at 35 g/ha [2, 11]: 75 to 84%; pest or weed control at 70 g/ha [2, 11]: 85 to 94%; pest or weed control at 140 g/ha [2, 11]: 85 to 94%; pest or weed control at 35 g/ha [2, 12]: 60 to 74%; pest or weed control at 70 g/ha [2, 12]: 75 to 84%; pest or weed control at 140 g/ha [2, 12]: 75 to 84%; pest or weed control at 35 g/ha [2, 13]: 0 to 29%; pest or weed control at 70 g/ha [2, 13]: 60 to 74%; pest or weed control at 140 g/ha [2, 13]: 60 to 74% |
| COC(=O)c1nc(-c2cc(F)c3c(c2)OC(F)(F)O3)c(F)c(N)c1Cl [Compound 17] | 0 to 29 | 0 to 29 | 60 to 74 | 0 to 29 | 0 to 29 | 0 to 29 | 0 to 29 | 0 to 29 | 0 to 29 | 0 to 29 | 0 to 29 | 0 to 29 | 0 to 29 | 0 to 29 | 0 to 29 | 0 to 29 | 0 to 29 | 0 to 29 | 0 to 29 | 0 to 29 | pest or weed control at 70 g/ha [1, 7]: 0 to 29%; pest or weed control at 35 g/ha [2, 11]: 0 to 29%; pest or weed control at 70 g/ha [2, 11]: 0 to 29%; pest or weed control at 140 g/ha [2, 11]: 0 to 29%; pest or weed control at 35 g/ha [2, 12]: 0 to 29%; pest or weed control at 70 g/ha [2, 12]: 0 to 29%; pest or weed control at 140 g/ha [2, 12]: 0 to 29%; pest or weed control at 35 g/ha [2, 13]: 0 to 29%; pest or weed control at 70 g/ha [2, 13]: 0 to 29%; pest or weed control at 140 g/ha [2, 13]: 0 to 29% |
